Measurements reported in patent US20040006139A1, “Choline pyruvate, method for the production thereof, formulations containing choline pyruvate and the use thereof” (priority 2000, published 2004).
Where two headings read alike, the source gives them in different places.

Experiments:
[1] = cited from earlier work
intestinal bacteria = conditions: by intestinal bacteria; cited from earlier work
[2] = long-distance runners, 20 miles, intake of 2.8 g, placebo-controlled; cited from earlier work
[3] = 12 hours of storage in a refrigerator; clear, yellow liquid
[4] = person, run over marathon distance (26.2 miles), daily supplement of 10 g
[5] = person, daily supplement of 5 g

C[N+](C)(C)CCO [choline, hydroxyethyltrimethylammonium]
lowest-observed-adverse-effect level (LOAEL) ([1]; in vivo): 7.5 g/day
upper tolerable daily dose ([1]; taking into consideration an element of uncertainty): 3.5 g
oral intake converted into di- or trimethylamine (intestinal bacteria): Approximately 60%

C[N+](C)(C)CCO.[Cl-] [choline chloride]
performance increase [2]: approximately 3%

choline pyruvate [Example 1]
Appearance (Day 4): clear
HPLC content Parapyruvate (Day 4): 2.7%
HPLC content Pyruvate (Day 4): 35.3%
IC content Choline (Day 4): 50.6%
Appearance (Day 21): clear
HPLC content Parapyruvate (Day 21): 2.6%
HPLC content Pyruvate (Day 21): 35.8%
IC content Choline (Day 21): 50.6%
Appearance (Day 42): clear
HPLC content Parapyruvate (Day 42): 2.6%
HPLC content Pyruvate (Day 42): 35.5%
IC content Choline (Day 42): 50.7%
Appearance (Day 103): clear
HPLC content Parapyruvate (Day 103): 2.8%
HPLC content Pyruvate (Day 103): 35.9%
IC content Choline (Day 103): 50.6%
stability during storage [3]: remained stable
performance increase [4]: 4%
fat-free body mass [5]: increase
weight reduction [5]: approximately 3%
